According to patent US11197862B2, “Methods of preventing toxicity of platinum drugs” (XOMICS BIOPHARMA, INC., priority 2015, dated 2021):
“Also recorded” adds a separate entry of the source.

Legend:
[1] = system: OCT2 and MATE1; test: Buflomedil inhibition of OCT2 and MATE1 with cisplatin or oxaliplatin as substrate (FIG. 15B); assay type: cell-based, human
[2] = Buflomedil plasma concentration in Balb/C mice after IV and IP administration; assay type: in vivo; conditions: male, mouse
Protocol: Male mice of 7-8 weeks of age were allowed to acclimate for 6 days. […] Blood was collected at 0.083, 0.5, and 1 hour into Heparin tubes. The plasma was obtained through centrifugation of the blood at 4000 rpm at 4° C.
For plasma sample analysis, the samples were thawed and mixed well before 20 µL aliquots were processed using protein precipitation by internal standard (Verapamil) containing organic solution, methanol: acetonitrile 5:95 (v/v). After vigorous vortexing and refrigerated centrifugation at 4000 rpm, 50 μL of the extract from each sample was reconstituted with 70 μL of 0.1% formic acid in water. […] The calibration curve was extracted in the same way as the plasma samples. The final extracts were analyzed by LC-MS/MS using positive electrospray ionizations under the multiple-reaction-monitoring (MRM) mode for the detection of buflomedil. The standard curve fitted by linear regression was used to quantify the analyte in the matrix using Analyst 1.5.2 software (AB Sciex) Results

[3] = system: Balb/c mice exposed to chronic treatment with Oxaliplatin; test: Sciatic nerve histology, g-ratio, in chronic oxaliplatin neuropathy model; assay type: in vivo, mouse; conditions: OXA 3.5 mg/kg iv, 8 cycles ± BFMD 30 mg/kg ip + 15 mg/kg iv
Protocol: After completion of behavioral and electrophysiological analysis, animals were killed and sciatic nerves were dissected, fixed, stained for myelin and cut as semithin sections. Light microscopy was performed to capture an image of the entire nerve which was then subjected to semi-automatic software-based nerve morphometry in order to assess axon diameter and myelin thickness 20.
To assess changes in nerve cell myelination, we calculated the g ratio of nerve fibers (g-ratio denominates the numerical ratio between the diameter of the axon and the outer diameter of the myelinated fiber; hypomyelination in sciatic nerves, which is associated with platinum neurotoxicity (Boehmerle, W., et al. Sci. Rep. 4, 6370), would thus cause an increase of the g-ratio).

[4] = system: Balb/c mice exposed to chronic treatment with Oxaliplatin; test: Dynamic Plantar Aesthesiometer Test in chronic oxaliplatin neuropathy model; assay type: in vivo, mouse; conditions: for mechanical allodynia, Dynamic Aesthesiometer Test at the end of treatment: OXA 3.5 mg/kg iv, 8 cycles ± BFMD 30 mg/kg ip + 15 mg/kg iv
Protocol: The Dynamic Plantar Aesthesiometer Test was used to determine the alterations in mechanical pain perception and their changes due to pharmacological treatment. Mice were accustomed to the device 3 days before performing the tests after a 1 hour acclimatization period followed by testing. The mechanical nociceptive threshold was assessed using a Dynamic Aesthesiometer Test (model 37450, Ugo Basile Biological Instruments, Comerio. Italy), which generated a linearly increasing mechanical force. At each time point, after the acclimatization period, a servo-controlled mechanical stimulus (a pointed metallic filament, 0.5-mm diameter) was applied to the plantar surface of the hind paw, which exerted a progressively increasing punctuate pressure, reaching up to 15 g within 15 seconds. The pressure evoking a clear voluntary hind-paw withdrawal response was recorded automatically and taken as representing the mechanical nociceptive threshold index. The mechanical threshold was always assessed alternatively on each side every 2 minutes on 3 occasions to yield a mean value. The results represent the maximal pressure (expressed in grams) tolerated by the animals. There was an upper limit cutoff of 30 seconds, after which the mechanical stimulus was automatically terminated.

[5] = Tissue platinum accumulation by atomic absorption after 8 cycles of oxaliplatin; assay type: in vivo, mouse; conditions: buflomedil 80 mg/kg po; 8 cycles OXA; 24 h after last administration
Protocol: At the end of 8 cycles of treatment, cold plate test, dynamic test and NCS test were conducted in all mice. Platinum content in DRG, Sciatic nerves and kidney of 3 mice each in the OXA and OXA+BFMD groups, was measured using the method below. The tissue total platinum concentration was determined on frozen sciatic nerve. […] For each tissue, a calibration with control standard tissue was generated. All frozen test samples and standards were treated for a digestion process with a specific HNO3: HCl solution (1:3). The samples obtained after digestion were analyzed by “Atomic Absorption” (Analyst 600 Perkin Elmer, Monza, Italy), and platinum tissue concentration was calculated accordingly.

[6] = system: male wistar rats treated with cisplatin; test: Cisplatin nephrotoxicity in Wistar rats (Example 9); assay type: in vivo, rat; conditions: co-administration with cisplatin 11 mg/kg IV; 72 hrs post treatment; expected
[7] = system: HepG2 cells; test: Anti-proliferation study (SRB assay) in HepG2 cells; conditions: FIG. 10
Protocol: The potency was determined by the sulforhodamine B (SRB) assay in 96-well plates. […] Seeding density was 3000 cells/well for both cell lines.

[8] = Dolutegravir plasma concentration in Balb/C mice after PO, IV and IP administration; assay type: in vivo, mouse; conditions: 10 mg/kg PO, 4 mg/kg IV, 4 mg/kg IP
Protocol: Male mice of 6-7 weeks of age were obtained from Charles River and allowed to acclimate for 3-5 days. The mice were weighed and individually identified (tail marked). The mice (n=3) in the oral (PO) group were fasted overnight and orally gavaged with 10 mg/kg of Dolutegravir. The second group of mice (n=3) were intravenously (IV) injected with 4 mg/kg of Dolutegravir. The third group of mice (n=3) were intraperitoneally (IP) injected with 4 mg/kg of Dolutegravir. At 10 min, 0.5 h, 1 h post dosing. ˜120 μl of blood sample was collected from the IV and IP mice by orbital venous sinus bleeding. At 1 h, 2 h, 4 h post dosing, ˜120 μl of blood sample was collected from the PO mice by orbital venous sinus bleeding. […] For analysis, the plasma samples were diluted into the calibration range as needed. […] The calibration curve was extracted in the same way as the unknown samples. The final extracts were analyzed by LC-MS/MS using positive electrospray ionizations under the multiple-reaction-monitoring (MRM) mode for the detection of Dolutegravir. The standard curve fitted by linear regression was used to quantify the analyte in the matrix using Analyst 1.6.2 software (AB Sciex).

[9] = system: Balb/c mice exposed to acute treatment with Oxaliplatin; test: Cold plate test after a single oxaliplatin administration; assay type: in vivo, mouse; conditions: 48 hours after single OXA 3.5 mg/kg iv, DTG 4 mg/kg ip 1 hour before
Protocol: OXA vehicle, OXA, CPC, DTG, DTG+OXA and CPC+OXA were administered once time. In the group co-administered with OXA and DTG. DTG was injected intraperitoneally 1 hour before the administration of OXA. In the group co-administered with OXA and CPC, CPC was co-administered with OXA intravenously. Mechanical allodynia and cold sensory threshold (dynamic test and cold plate test) were performed 24 and 48 hours after the treatment, respectively, using the methods described in EXAMPLE 15 Plasma Sample Collection

Row | SMILES | difference in IC50s between oxaliplatin and cisplatin as substrate (OCT2 or MATE1) [1] | selectivity toward OCT2 over MATE1, cisplatin or oxaliplatin as substrate [1] | concentration at 10 min ([2]; Balb/C, other: IV/IP (intravenous group and intraperitoneal groups), 10 mg/kg IV, 20 or 40 mg/kg IP, each group) [ng/mL] | bioavailability ([2]; ip, Balb/C mice, read-out: estimated bioavailability of IP administration) [%] | sciatic nerve G-ratio (hypomyelination) ([3]; listed as BFMD) | sciatic nerve G-ratio (hypomyelination) ([3]; listed as buflomedil) | mechanical allodynia, Dynamic Aesthesiometer Test at the end of treatment ([4]; listed as BFMD) | mechanical allodynia, Dynamic Aesthesiometer Test at the end of treatment ([4]; listed as buflomedil) | mechanical allodynia (mechanical pain threshold) ([4]; buflomedil 80 mg/kg po 2 hours before OXA, 8 cycles, n=3/group) | platinum (oxaliplatin) accumulation in DRG [5] | platinum (oxaliplatin) accumulation in kidney [5] | platinum (oxaliplatin) accumulation in sciatic nerves [5] | serum BUN values [6] | effect on anti-tumor potency of oxaliplatin in HepG2 [7] | effect of route of administration on plasma exposure [8] | cold allodynia, cold plate [9] | cold allodynia, cold plate ([9]; listed as DTG)
1 | COc1cc(OC)c(C(=O)CCCN2CCCC2)c(OC)c1 [Buflomedil, 4-pyrrolidin-1-yl-1-(2,4,6-trimethoxyphenyl)butan-1-one] | nearly identical IC50s; also recorded: no/minimal difference in its IC50s | great selectivity toward OCT2 | > 2000 | 40 to 60 | reduction in G-ratio of the OXA+BFMD group vs OXA group | effective on reducing sciatic nerve damage | only the groups treated with OXA alone showed the development of mechanical allodynia | effective on preventing mechanical allodynia | effective on reducing mechanical (FIG. 30A) and cold (FIG. 30B) allodynia; also recorded: showed protective effects against OXAIPN | effective on reducing platinum accumulation in DRG; also recorded: significant decrease in oxaliplatin accumulation in DRG | effective on reducing platinum accumulation; also recorded: reduced oxaliplatin accumulation in the kidney | such decrease was not seen in sciatic nerves | lowers the BUN values | not buflomedil |  |  | 
2 | C[C@@H]1CCO[C@H]2Cn3cc(C(=O)NCc4ccc(F)cc4F)c(=O)c(O)c3C(=O)N12 [Dolutegravir] |  |  |  |  |  |  |  |  |  |  |  |  |  |  | route of administration significantly affected dolutegravir plasma exposure | effective on reducing cold hypersensitivity | protects the animal from cold allodynia
